# Experimental data published in patent US20250163052A1, “cGAS INHIBITORS AND USES THEREOF” (Cornell University, priority 2022, published 2025).
# Where two headings read alike, the source gives them in different places.
# How the values were obtained:
# NFkB-SEAP = test: THP1-Dual cells transfected with DNA, nfkb expression (Quantiblue); assay type: cell-based; conditions: Homo sapiens; for inhibition at 10 µM: THP-1, 10 μM; for inhibition at 30 µM: THP-1, 30 μM
# Method in brief: (§1)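 THP1-Dual cells were treated with compounds at various dilutions for 4 h, then transfected with DNA (2 ug/ml) using lipofectamine and incubated overnight. Supernatant Ifnb reporter was read with Quantiluc and nfkb reporter with Quantiblue; viability was measured by CellTiter-Glo.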
# h-cGAS = h-cGAS (Homo sapiens, UniProt Q8N884); test: Cell-free human cGAS enzyme inhibition assay (ATP depletion, Kinase-Glo Max); assay type: biochemical; conditions: 3 h; for inhibition at 1 µM: read-out: h-cGAS, conc. 1 μM; for inhibition at 10 µM: read-out: h-cGAS, conc. 10 μM
# Sequence of h-cGAS (Q8N884 whole entry): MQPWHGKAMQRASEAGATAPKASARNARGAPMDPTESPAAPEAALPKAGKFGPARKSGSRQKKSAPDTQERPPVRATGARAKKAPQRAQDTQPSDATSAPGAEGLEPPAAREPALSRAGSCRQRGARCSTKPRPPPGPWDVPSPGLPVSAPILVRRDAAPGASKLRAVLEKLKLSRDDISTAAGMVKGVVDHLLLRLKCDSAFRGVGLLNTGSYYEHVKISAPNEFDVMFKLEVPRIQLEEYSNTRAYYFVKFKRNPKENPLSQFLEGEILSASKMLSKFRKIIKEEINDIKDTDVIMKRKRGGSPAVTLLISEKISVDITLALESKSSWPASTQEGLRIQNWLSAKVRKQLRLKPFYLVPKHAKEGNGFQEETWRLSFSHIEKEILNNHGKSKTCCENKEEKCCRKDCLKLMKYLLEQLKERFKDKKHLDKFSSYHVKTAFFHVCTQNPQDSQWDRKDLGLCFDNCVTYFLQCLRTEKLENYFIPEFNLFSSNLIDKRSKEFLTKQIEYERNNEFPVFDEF
# IFNB = test: THP1-Dual cells transfected with DNA, Ifnb expression (Quantiluc); assay type: cell-based; conditions: Homo sapiens; for inhibition at 10 µM: THP-1, 10 μM; for inhibition at 30 µM: THP-1, 30 μM
# Method in brief: as §1
# [1] = Metabolic stability in human liver microsomes; conditions: for Remaining (NCF = 60 min) / Remaining (T = 60 min): human liver microsomes; for Remaining (NCF = 60 min): no co-factor (no NADPH); for Remaining (T = 60 min): 60 min with NADPH; for CLint scaled / half-life / microsomal CLint: human, liver microsomes
# THP1 cells = test: THP1-Dual cells, cell viability (CellTiter-Glo); assay type: cell-based
# Method in brief: as §1
# [2] = Metabolic stability in mouse liver microsomes; conditions: for Remaining (NCF = 60 min) / Remaining (T = 60 min): mouse liver microsomes; for Remaining (NCF = 60 min): no co-factor (no NADPH); for Remaining (T = 60 min): 60 min with NADPH; for CLint scaled / half-life / microsomal CLint: mouse, liver microsomes
# [3] = Protein binding in mouse brain homogenates; assay type: in vitro ADME; conditions: for recovery at 6 h / fraction unbound at 6 hr: brain homogenate; for fraction unbound at 6 hr: read-out: % BoundBrain (converted)
# m-cGAS = m-cGAS (Mus musculus, UniProt Q8C6L5); test: Cell-free mouse cGAS enzyme inhibition assay (ATP depletion, Kinase-Glo Max); assay type: biochemical; conditions: 1 h; for inhibition at 1 µM: read-out: m-cGAS, conc. 1 μM; for inhibition at 10 µM: read-out: m-cGAS, conc. 10 μM
# Sequence of m-cGAS (Q8C6L5 whole entry): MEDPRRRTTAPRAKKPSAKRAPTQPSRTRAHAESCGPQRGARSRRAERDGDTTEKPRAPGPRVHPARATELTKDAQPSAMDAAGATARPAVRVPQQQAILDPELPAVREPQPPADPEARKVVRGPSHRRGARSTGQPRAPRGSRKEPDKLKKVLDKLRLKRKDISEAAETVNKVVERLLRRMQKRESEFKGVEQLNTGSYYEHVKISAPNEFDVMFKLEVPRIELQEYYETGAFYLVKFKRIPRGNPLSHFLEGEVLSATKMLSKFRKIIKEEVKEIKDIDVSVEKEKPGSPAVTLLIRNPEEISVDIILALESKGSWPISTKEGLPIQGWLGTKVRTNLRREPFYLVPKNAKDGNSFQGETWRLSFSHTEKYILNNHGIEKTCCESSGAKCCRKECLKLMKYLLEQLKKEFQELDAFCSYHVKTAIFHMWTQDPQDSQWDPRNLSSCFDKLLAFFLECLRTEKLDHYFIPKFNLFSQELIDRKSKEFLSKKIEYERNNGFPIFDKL
# 5HT2B = 5HT2B (Homo sapiens, UniProt P41595); test: Safety panel screening, 5HT2B Ca2+ mobilization; assay type: cell-based
# Sequence of 5HT2B (P41595 whole entry, species assumed): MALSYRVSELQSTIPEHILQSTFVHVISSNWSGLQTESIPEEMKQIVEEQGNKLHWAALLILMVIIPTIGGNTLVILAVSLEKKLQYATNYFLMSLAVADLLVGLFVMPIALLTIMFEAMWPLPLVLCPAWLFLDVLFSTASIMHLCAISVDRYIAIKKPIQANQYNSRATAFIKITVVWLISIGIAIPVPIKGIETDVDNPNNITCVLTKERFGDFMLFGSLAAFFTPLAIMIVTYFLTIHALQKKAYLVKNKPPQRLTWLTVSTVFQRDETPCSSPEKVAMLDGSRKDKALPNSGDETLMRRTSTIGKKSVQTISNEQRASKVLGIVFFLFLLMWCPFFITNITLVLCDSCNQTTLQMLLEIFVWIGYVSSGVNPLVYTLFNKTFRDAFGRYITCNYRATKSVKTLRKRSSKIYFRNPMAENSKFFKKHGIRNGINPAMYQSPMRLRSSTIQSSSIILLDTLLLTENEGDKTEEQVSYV
# SET = SET (Homo sapiens, UniProt P31645); test: Safety panel screening, serotonin transporter neurotransmitter uptake; assay type: cell-based; conditions: read-out: Mean percentage inhibition (%) at 10 μM, SET
# Sequence of SET (P31645 whole entry): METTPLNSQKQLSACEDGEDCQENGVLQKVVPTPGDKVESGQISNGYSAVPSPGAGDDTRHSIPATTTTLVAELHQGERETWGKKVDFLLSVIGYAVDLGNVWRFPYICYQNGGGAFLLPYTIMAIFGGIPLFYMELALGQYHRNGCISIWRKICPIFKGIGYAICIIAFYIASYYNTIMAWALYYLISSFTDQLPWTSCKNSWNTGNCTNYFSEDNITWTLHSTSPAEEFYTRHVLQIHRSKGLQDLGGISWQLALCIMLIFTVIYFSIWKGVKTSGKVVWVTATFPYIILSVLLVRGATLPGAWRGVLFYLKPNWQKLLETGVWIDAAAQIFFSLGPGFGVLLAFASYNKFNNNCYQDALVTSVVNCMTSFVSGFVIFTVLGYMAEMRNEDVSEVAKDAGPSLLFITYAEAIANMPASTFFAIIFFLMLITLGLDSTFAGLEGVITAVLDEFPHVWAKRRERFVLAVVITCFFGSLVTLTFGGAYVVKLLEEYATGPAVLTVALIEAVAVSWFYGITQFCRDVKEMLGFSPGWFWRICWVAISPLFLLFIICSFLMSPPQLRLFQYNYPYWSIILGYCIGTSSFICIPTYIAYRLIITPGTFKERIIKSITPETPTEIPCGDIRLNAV
# [4] = Pharmacokinetic study, plasma and brain PK parameters after I.P. dosing; assay type: in vivo, mouse; conditions: 25 mg/Kg I.P.; for Kp: brain/plasma, 25 mg/kg
# Method: To test pharmacokinetics, TDI-6570 ([…] solution in water containing 0.2% Tween 80) was administered to 8-weeks old CD-1 male mice (n=3 for each time point) intraperitoneally (IP) and both plasma (EDTA-K2) and brain tissues were collected at various time points (0.5, 2, 4, 8 and 24 hours post drug administration). Transcardial perfusion were performed with saline prior to brain collection. Bioanalysis of brain tissue and plasma extracts were performed by LC-MS/MS.
# PDE4D2 = PDE4D2 (Homo sapiens, UniProt Q08499); test: Safety panel screening, PDE4D2 IMAP; assay type: biochemical; conditions: read-out: Mean percentage inhibition (%) at 10 μM, PDE4D2
# Sequence of PDE4D2 (Q08499 303-809): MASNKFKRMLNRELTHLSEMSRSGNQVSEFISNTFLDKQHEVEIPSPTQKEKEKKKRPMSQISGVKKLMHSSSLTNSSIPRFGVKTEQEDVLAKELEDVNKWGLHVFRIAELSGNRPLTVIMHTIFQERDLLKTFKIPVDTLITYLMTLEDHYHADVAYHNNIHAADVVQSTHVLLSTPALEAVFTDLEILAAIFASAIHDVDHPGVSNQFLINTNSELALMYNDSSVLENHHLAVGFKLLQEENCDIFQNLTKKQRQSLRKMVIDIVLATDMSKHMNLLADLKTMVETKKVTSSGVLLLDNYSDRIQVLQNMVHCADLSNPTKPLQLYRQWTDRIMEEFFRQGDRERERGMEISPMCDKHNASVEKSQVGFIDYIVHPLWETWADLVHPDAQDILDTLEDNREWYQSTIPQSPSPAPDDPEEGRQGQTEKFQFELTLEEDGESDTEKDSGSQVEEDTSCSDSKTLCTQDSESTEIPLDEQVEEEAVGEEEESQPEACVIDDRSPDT
# hERG = hERG (Homo sapiens, UniProt Q12809); test: Safety panel screening, hERG automated patch clamp; assay type: cell-based; conditions: read-out: Mean percentage inhibition (%) at 10 μM, hERG
# Sequence of hERG (Q12809 whole entry): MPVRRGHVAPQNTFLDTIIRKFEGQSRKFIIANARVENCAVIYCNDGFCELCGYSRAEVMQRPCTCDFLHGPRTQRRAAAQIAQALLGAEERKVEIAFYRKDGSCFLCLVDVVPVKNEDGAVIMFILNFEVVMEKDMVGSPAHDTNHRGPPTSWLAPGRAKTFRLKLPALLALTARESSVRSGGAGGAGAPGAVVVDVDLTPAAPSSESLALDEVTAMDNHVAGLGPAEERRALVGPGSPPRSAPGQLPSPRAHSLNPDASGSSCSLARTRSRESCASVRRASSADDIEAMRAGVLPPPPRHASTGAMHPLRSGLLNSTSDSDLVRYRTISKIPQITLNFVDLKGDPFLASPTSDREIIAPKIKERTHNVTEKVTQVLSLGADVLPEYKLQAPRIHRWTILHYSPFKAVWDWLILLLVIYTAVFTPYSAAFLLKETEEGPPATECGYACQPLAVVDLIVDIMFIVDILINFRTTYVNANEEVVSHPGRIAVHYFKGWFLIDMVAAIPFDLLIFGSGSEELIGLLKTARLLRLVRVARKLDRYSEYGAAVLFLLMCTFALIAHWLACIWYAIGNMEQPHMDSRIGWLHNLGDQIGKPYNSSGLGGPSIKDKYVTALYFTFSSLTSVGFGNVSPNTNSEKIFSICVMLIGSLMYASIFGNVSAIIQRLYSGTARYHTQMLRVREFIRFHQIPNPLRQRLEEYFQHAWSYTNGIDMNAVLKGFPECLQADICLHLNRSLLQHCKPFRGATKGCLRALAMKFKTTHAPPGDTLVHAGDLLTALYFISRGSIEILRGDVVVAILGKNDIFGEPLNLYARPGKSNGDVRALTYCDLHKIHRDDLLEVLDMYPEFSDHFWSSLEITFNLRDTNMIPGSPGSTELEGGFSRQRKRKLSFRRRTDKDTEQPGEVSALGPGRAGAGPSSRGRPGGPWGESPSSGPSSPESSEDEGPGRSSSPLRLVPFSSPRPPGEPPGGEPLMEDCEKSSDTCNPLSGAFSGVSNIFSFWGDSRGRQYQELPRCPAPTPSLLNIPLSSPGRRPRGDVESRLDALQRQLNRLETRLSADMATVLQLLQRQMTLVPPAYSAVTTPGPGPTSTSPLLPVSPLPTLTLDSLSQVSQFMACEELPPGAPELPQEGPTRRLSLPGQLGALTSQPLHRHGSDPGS
# D1 = D1 (Homo sapiens, UniProt P21728); test: Safety panel screening, D1 cAMP assay; assay type: cell-based
# Sequence of D1 (P21728 whole entry): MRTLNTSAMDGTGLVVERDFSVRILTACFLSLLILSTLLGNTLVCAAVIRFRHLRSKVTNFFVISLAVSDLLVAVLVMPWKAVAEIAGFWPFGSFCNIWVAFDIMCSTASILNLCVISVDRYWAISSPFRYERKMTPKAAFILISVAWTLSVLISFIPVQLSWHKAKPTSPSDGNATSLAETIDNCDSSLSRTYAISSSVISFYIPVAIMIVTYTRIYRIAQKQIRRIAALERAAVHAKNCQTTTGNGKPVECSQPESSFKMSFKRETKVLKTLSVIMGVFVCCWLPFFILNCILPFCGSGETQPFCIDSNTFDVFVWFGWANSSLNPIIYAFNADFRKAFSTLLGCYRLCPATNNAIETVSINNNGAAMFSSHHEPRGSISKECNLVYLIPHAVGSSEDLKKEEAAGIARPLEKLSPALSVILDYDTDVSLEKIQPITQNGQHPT
smiles,measurement,setting,value
Cn1cc(-c2cc(Cl)c(Cl)c3oc4c(c23)CN(C(=O)CN)CC4)cn1 [Compound 33],inhibition at 10 µM,NFkB-SEAP,25 to 49%
same,inhibition at 30 µM,NFkB-SEAP,75 to 100%
same,inhibition at 1 µM,h-cGAS,50 to 74%
same,inhibition at 10 µM,h-cGAS,75 to 100%
same,inhibition at 10 µM,IFNB,25 to 49%
same,inhibition at 30 µM,IFNB,75 to 100%
same,Remaining (NCF = 60 min),[1],109.6%
same,Remaining (T = 60 min),[1],87.6%
same,CLint scaled,[1],< 8.6 mL/min/kg
same,half-life,[1],> 2.42 h
same,microsomal CLint,[1],< 9.6 µL/min/mg
same,Cell viability 10 μM,THP1 cells,"+++ (+, ++, and +++ mean the compound respectively shows 25-49%; 50-74%; or 75-100% viability to cells)"
same,Cell viability 30 μM,THP1 cells,"+ (+, ++, and +++ mean the compound respectively shows 25-49%; 50-74%; or 75-100% viability to cells)"
same,Remaining (NCF = 60 min),[2],90.0%
same,Remaining (T = 60 min),[2],72.5%
same,CLint scaled,[2],38.5 mL/min/kg
same,half-life,[2],2.38 h
same,microsomal CLint,[2],9.7 µL/min/mg
same,LogK,[3],>4.39
same,% Remaining at 6 hr,[3],90.87%
same,recovery at 6 h,[3],< 82.4%
same,fraction unbound at 6 hr,[3],< 4e-05
same,inhibition at 1 µM,m-cGAS,75 to 100%
same,inhibition at 10 µM,m-cGAS,75 to 100%
Cn1cc(-c2cc(Cl)c(Cl)c3sc4c(c23)CN(C(=O)CN)CC4)cn1 [Compound 54],inhibition at 10 µM,NFkB-SEAP,75 to 100%
same,inhibition at 30 µM,NFkB-SEAP,75 to 100%
same,inhibition at 1 µM,h-cGAS,50 to 74%
same,inhibition at 10 µM,h-cGAS,75 to 100%
same,inhibition at 10 µM,IFNB,75 to 100%
same,inhibition at 30 µM,IFNB,75 to 100%
same,Remaining (NCF = 60 min),[1],129.8%
same,Remaining (T = 60 min),[1],85.4%
same,CLint scaled,[1],< 8.6 mL/min/kg
same,half-life,[1],> 2.42 h
same,microsomal CLint,[1],< 9.6 µL/min/mg
same,Cell viability 10 μM,THP1 cells,"++ (+, ++, and +++ mean the compound respectively shows 25-49%; 50-74%; or 75-100% viability to cells)"
same,Cell viability 30 μM,THP1 cells,"− (Cell viability <24%, in THP1 cells is expressed as “−”)"
same,Remaining (NCF = 60 min),[2],94.5%
same,Remaining (T = 60 min),[2],82.0%
same,CLint scaled,[2],< 38 mL/min/kg
same,half-life,[2],> 2.42 h
same,microsomal CLint,[2],< 9.6 µL/min/mg
same,inhibition at 1 µM,m-cGAS,0 to 24%
same,inhibition at 10 µM,m-cGAS,50 to 74%
O=C(CO)N1CCc2c(sc3c(Cl)c(Cl)cc(-c4cn[nH]c4)c23)C1 [Compound 63],"Agonist Mode Mean percentage activation (%) at 10 μM, 5HT2B",5HT2B; agonist mode,22.36%
same,inhibition at 10 µM,"5HT2B; antagonist mode, read-out: Antagonist Mode Mean percentage inhibition (%) at 10 μM, 5HT2B",49.4%
same,inhibition at 10 µM,SET,15.2%
same,AUC_%Extrap_obs (Brain),[4]; brain,1.62%
same,AUClast/D (Brain),[4]; brain,1354 mg·h/mL
same,Cmax (Brain),[4]; brain,3721 ng/mL
same,Kp,"[4]; mouse, ip, read-out: AUClast Ratio (brain/plasma)",0.989
same,Kp,"[4]; mouse, ip, read-out: Cmax Ratio (brain/plasma)",0.734
same,AUC(0-inf),"[4]; mouse, ip, brain, read-out: AUCInf (Brain)",34400 ng·h/mL
same,AUC(0-t),"[4]; mouse, ip, brain, read-out: AUClast (Brain)",33900 ng·h/mL
same,MRT inf,"[4]; mouse, ip, brain, read-out: MRTInf_obs (Brain)",6.51 h
same,half-life,"[4]; mouse, ip, brain, read-out: T1/2 (Brain) (converted)",3.86 h
same,Tmax,"[4]; mouse, ip, brain, read-out: Tmax (Brain)",4 h
same,Cmax,"[4]; mouse, ip, plasma",5070 ng/mL
same,AUC(0-inf),"[4]; mouse, ip, plasma, read-out: AUCInf (plasma)",34300 ng·h/mL
same,AUC(0-t),"[4]; mouse, ip, plasma, read-out: AUClast (plasma)",34200 ng·h/mL
same,MRT inf,"[4]; mouse, ip, plasma, read-out: MRTInf_obs (plasma)",4.76 h
same,half-life,"[4]; mouse, ip, plasma, read-out: T1/2 (plasma) (converted)",4.79 h
same,Tmax,"[4]; mouse, ip, plasma, read-out: Tmax (plasma)",2 h
same,AUC_%Extrap_obs (plasma),[4]; plasma,0.0536%
same,AUClast/D (plasma),[4]; plasma,1370 mg·h/mL
same,inhibition at 10 µM,PDE4D2,73.2%
same,inhibition at 10 µM,hERG,49.7%
same,inhibition at 10 µM,NFkB-SEAP,25 to 49%
same,inhibition at 30 µM,NFkB-SEAP,75 to 100%
same,inhibition at 10 µM,h-cGAS,25 to 49%
same,inhibition at 10 µM,IFNB,50 to 74%
same,inhibition at 30 µM,IFNB,75 to 100%
same,Cell viability 10 μM,THP1 cells,"+++ (+, ++, and +++ mean the compound respectively shows 25-49%; 50-74%; or 75-100% viability to cells)"
same,Cell viability 30 μM,THP1 cells,"+++ (+, ++, and +++ mean the compound respectively shows 25-49%; 50-74%; or 75-100% viability to cells)"
same,LogK,[3],>4.72
same,% Remaining at 6 hr,[3],108.27%
same,recovery at 6 h,[3],< 88.4%
same,fraction unbound at 6 hr,[3],< 2e-05
same,"Agonist Mode Mean percentage activation (%) at 10 μM, D1",D1; agonist mode,6.19%
same,inhibition at 10 µM,"D1; antagonist mode, read-out: Antagonist Mode Mean percentage inhibition (%) at 10 μM, D1",3.08%
same,inhibition at 1 µM,m-cGAS,25 to 49%
same,inhibition at 10 µM,m-cGAS,50 to 74%
Cn1cc(-c2cc(Cl)c(Cl)c3sc4c(c23)CCN(C(=O)CN)C4)cn1 [Compound 74],inhibition at 10 µM,NFkB-SEAP,25 to 49%
same,inhibition at 30 µM,NFkB-SEAP,50 to 74%
same,inhibition at 1 µM,h-cGAS,0 to 24%
same,inhibition at 10 µM,h-cGAS,25 to 49%
same,inhibition at 10 µM,IFNB,75 to 100%
same,inhibition at 30 µM,IFNB,75 to 100%
same,Remaining (NCF = 60 min),[1],89.2%
same,Remaining (T = 60 min),[1],93.6%
same,CLint scaled,[1],< 8.6 mL/min/kg
same,half-life,[1],> 2.42 h
same,microsomal CLint,[1],< 9.6 µL/min/mg
same,Cell viability 10 μM,THP1 cells,"+++ (+, ++, and +++ mean the compound respectively shows 25-49%; 50-74%; or 75-100% viability to cells)"
same,Cell viability 30 μM,THP1 cells,"− (Cell viability <24%, in THP1 cells is expressed as “−”)"
same,Remaining (NCF = 60 min),[2],97.8%
same,Remaining (T = 60 min),[2],84.8%
same,CLint scaled,[2],< 38 mL/min/kg
same,half-life,[2],> 2.42 h
same,microsomal CLint,[2],< 9.6 µL/min/mg
same,LogK,[3],1.12
same,% Remaining at 6 hr,[3],98.24%
same,recovery at 6 h,[3],92.8%
same,fraction unbound at 6 hr,[3],0.0706
same,inhibition at 1 µM,m-cGAS,25 to 49%
same,inhibition at 10 µM,m-cGAS,75 to 100%
Cn1cc(-c2cc(Cl)c(Cl)c3nc4c(n23)CN(C(=O)CO)CC4)cn1 [Compound 99],inhibition at 10 µM,h-cGAS,0 to 24%
same,LogK,[3],0.64
same,% Remaining at 6 hr,[3],99.35%
same,recovery at 6 h,[3],90.1%
same,fraction unbound at 6 hr,[3],0.19
same,inhibition at 10 µM,m-cGAS,0 to 24%
"CCCc1nc2c(C)cc(-c3nc4ccccc4n3C)cc2n1Cc1ccc(-c2ccccc2C(=O)O)cc1 [Telmisartan, reference compound]",LogK,[3],1.72
same,% Remaining at 6 hr,[3],103.38%
same,recovery at 6 h,[3],99.3%
same,fraction unbound at 6 hr,[3],0.0188
